Reference: patent publication US20160038532A1, “Treatment of Multiple Sclerosis With Combination of Laquinimod and Glatiramer Acetate” (TEVA PHARMACEUTICAL INDUSTRIES, LTD., priority 2011, published 2016)
“And” between values parts separate entries of the source, which are not always exact repeats. Equal values may be shown once. Marks after values point to notes of the source that are not given here.

What was measured:
MOG-induced EAE [1] = assay: MOG-induced EAE, laquinimod alone and with GA blocking (Example 2.1), clinical signs; assay type: in vivo, C57B1/6 mice; parameters: Mortality: concentration or dose not given beside the values
MOG-induced EAE [2] = assay: MOG-induced EAE, repeat study (Example 2.3); assay type: in vivo, C57B1/6 mice
Description: 120 female C57B1/6 mice 8-10 weeks old were used the study. Mice were allocated randomly into 8 groups according to Table 7 below.
24 mg MOG was diluted in 8 ml PBS (3 mg/ml, stock solution). Groups 1, 3, 5 and 7: 4 ml of stock solution was diluted 1:1 with PBS. […] This solution was mixed 1:1 with the stock solution of MOG.
The high dose LAQ (25 mg/10 ml/kg) solution (150 mg in 60 ml DDW) was prepared once weekly and stored in the amber glass at room temperature. The lower LAQ doses were prepared daily. For the dose of 5 mg/kg, 1.6 ml of stock solution were added to 6.4 ml DDW. For the dose 1 mg/kg, […] of the previous solution (intermediate dose) were added to 5.2 ml DDW. The compound was administered by gavage once daily during the hole experiment (30 days) at a volume of 0.2 ml/mouse.
The mice were observed daily from the 10th day post-EAE induction (first injection of MOG) and the EAE clinical signs were scored according to the grades described in the 2 above.

MOG-induced EAE [3] = assay: MOG-induced EAE with GA blocking and s.c. daily GA (Example 2.4); assay type: in vivo, C57B1 mice; parameters: key to MMS value / GMS value: clinical score per grading system; 1+ = sick, 5 = dead/killed
Description: The C57B1 strain of mouse was selected, as it is an established EAE model.
Laquinimod was administered daily orally for 30 days at dose level of 5.0 mg/kg or 25.0 mg/kg.
Disease was induced in the mice by the injection of the encephalitogenic emulsion (MOG/CFA). Laquinimod was administered orally for 30 consecutive days from the initiation of the study.
EAE induction EAE was induced by injecting the encephalitogenic mixture (emulsion) consisting of MOG (150.0 μg/mouse). A volume of 0.2 ml of emulsion was injected subcutaneously into the flanks of the mice. Pertussis toxin was injected intraperitoneally on the day of induction and 48 hours later (total amount was 0300 μg/mouse in 0.2 ml dosage volume).
The emulsion (for groups 2 and 3 and groups 1 and 4 to 8) were made from equal parts of oil and liquid portions (1:1) in two syringes connected to each other with Leur lock, transferred to insulin syringe and 0.2 ml was injected to the right flank of each mouse. The dose of the MOG in all the groups (1 to 8) was 150 μg/mouse.
The test concentrations of laquinimod were prepared in purified water. For high dose (25.0 mg/kg) 2.5 mg/mL stock solution were prepared (groups #3, 6 and 8). The stock solutions were diluted 1:5 to yield 0.5 mg/mL for dose level of 5.0 mg/kg for groups 5 and 7. Laquinimod was administered to the respective groups by gavage at a volume of 0.2 ml/mouse.
Every day one tube was thawed and brought to RT.
Clinical signs Scaring of EAE clinical signs was started from Day 10 post EAE induction and was continued daily until Day 30. The clinical signs were recorded according to a grading system described in the table 11 below
mice having scores of 1 and above were considered sick. When the first clinical sign appeared all mice were given food soaked in water, which was spread on different places on the bedding of the cages. An animal which continued to have score 4 for three days was killed on humane grounds and given score 5 on the next day. For calculation purposes, the score of animals that were sacrificed or died was carried forward.
• The number of sick animals in each group were summed. • The incidence of disease was calculated as
• The number of dead or moribund animals in each group were summed. • The mortality of disease was calculated as
• The mean duration of disease expressed in days was calculated as
• The mean onset of disease expressed in days was calculated as
• The mean maximal score (MMS) of each group was calculated as
• The daily scores of each mouse in the test group were summed and the Individual mean daily score (IMS) was calculated as […]

[4] = laquinimod 5 mg/kg/day gavage, alone or + GA-blocking 12.5 mg/kg day 0
[5] = laquinimod 25 mg/kg/day gavage, alone or + GA-blocking 12.5 mg/kg day 0
[6] = laquinimod 1 mg/kg/day gavage, alone or + GA-blocking 12.5 mg/kg day 0
[7] = LAQ 5.0 mg/kg oral daily 30 d, alone or + GA 250 mg/kg s.c. daily 10 d
[8] = LAQ 25.0 mg/kg oral daily 30 d, alone or + GA 250 mg/kg s.c. daily 10 d
[9] = GA-blocking 12.5 mg/kg (250 μg/mouse) in inoculum day 0
[10] = GA-blocking 12.5 mg/kg with inoculum day 0
[11] = GA blocking 12.5 mg/kg once with encephalitogen, alone or + LAQ 25.0 mg/kg oral daily 30 d
[12] = GA blocking 12.5 mg/kg once with encephalitogen, alone or + LAQ 25.0 mg/kg oral daily 30 d, listed as GA blocking

For `CCN(C(=O)c1c(O)c2c(Cl)cccc2n(C)c1=O)c1ccccc1` [laquinimod], the inhibition at 5 mg/kg (MOG-induced EAE [1]; Mus musculus, po, 0 h, laquinimod 5 mg/kg/day gavage, alone or + GA-blocking 12.5 mg/kg day 0, read-out: % inhibition compared to control (GMS)) was 31.2%, the inhibition at 25 mg/kg (MOG-induced EAE [1]; Mus musculus, po, 0 h, laquinimod 25 mg/kg/day gavage, alone or + GA-blocking 12.5 mg/kg day 0, read-out: % inhibition compared to control (GMS)) was 54.4% and the “Group Mean Score” value (MOG-induced EAE [1]; [4]) was 2.25**. For the same compound, the Incidence (MOG-induced EAE [1]; [4]) was 13/13, the “Mean Disease Duration” value (MOG-induced EAE [1]; [4]) was 13.2*** days and the “Mean Maximal Score” value (MOG-induced EAE [1]; [4]) was 4.38*. For the same compound, the “Mean Onset” value (MOG-induced EAE [1]; [4]) was 16.8* days, the “Group Mean Score” value (MOG-induced EAE [1]; [5]) was 1.49*** and the Incidence (MOG-induced EAE [1]; [5]) was 14/15. For the same compound, the “Mean Disease Duration” value (MOG-induced EAE [1]; [5]) was 10.0*** days, the “Mean Maximal Score” value (MOG-induced EAE [1]; [5]) was 3.27*** and the “Mean Onset” value (MOG-induced EAE [1]; [5]) was 20.3** days. The Mortality (MOG-induced EAE [1]; mouse, in vivo) was 0/15 and 2/13, the inhibition at 1 mg/kg (MOG-induced EAE [2]; Mus musculus, po, 0 h, laquinimod 1 mg/kg/day gavage, alone or + GA-blocking 12.5 mg/kg day 0, read-out: % inhibition compared to Control (GMS)) was -1.2% and the inhibition at 5 mg/kg (MOG-induced EAE [2]; Mus musculus, po, 0 h, laquinimod 5 mg/kg/day gavage, alone or + GA-blocking 12.5 mg/kg day 0, read-out: % inhibition compared to Control (GMS)) was 70%. For the same compound, the inhibition at 25 mg/kg (MOG-induced EAE [2]; Mus musculus, po, 0 h, laquinimod 25 mg/kg/day gavage, alone or + GA-blocking 12.5 mg/kg day 0, read-out: % inhibition compared to Control (GMS)) was 95%, the “Group Mean Score” value (MOG-induced EAE [2]; [6]) was 2.50 and the Incidence (MOG-induced EAE [2]; [6]) was 15/15. For the same compound, the “Mean Disease Duration” value (MOG-induced EAE [2]; [6]) was 14.1 days, the “Mean Maximal Score” value (MOG-induced EAE [2]; [6]) was 4.27 and the “Mean Onset” value (MOG-induced EAE [2]; [6]) was 13.7 days. The Mortality (MOG-induced EAE [2]; [6]) was 4/15, the “Group Mean Score” value (MOG-induced EAE [2]; [4]) was 0.74** and the Incidence (MOG-induced EAE [2]; [4]) was 11/15. The “Mean Disease Duration” value (MOG-induced EAE [2]; [4]) was 6.3*** days, the “Mean Maximal Score” value (MOG-induced EAE [2]; [4]) was 2.23* and the “Mean Onset” value (MOG-induced EAE [2]; [4]) was 21.0*** days. For the same compound, the Mortality (MOG-induced EAE [2]; [4]) was 0/15, the “% inhibition compared to Control (GMS)” value (MOG-induced EAE [2]; [5]) was 95.1% and the “Group Mean Score” value (MOG-induced EAE [2]; [5]) was 0.12***. For the same compound, the Incidence (MOG-induced EAE [2]; [5]) was 6/15, the “Mean Disease Duration” value (MOG-induced EAE [2]; [5]) was 1.5*** days and the “Mean Maximal Score” value (MOG-induced EAE [2]; [5]) was 0.77***. The “Mean Onset” value (MOG-induced EAE [2]; [5]) was 24.7*** days, the Mortality (MOG-induced EAE [2]; [5]) was 0/15 and the “% Inhibition 1 (incidence)” value (MOG-induced EAE [3]; [7]) was 52.9%. For the same compound, the “GMS % Inhibition 3” value (MOG-induced EAE [3]; [7]) was 71.4%, the GMS value (MOG-induced EAE [3]; [7]) was 0.6 ± 0.9 and the Incidence (MOG-induced EAE [3]; [7]) was 8/10. The “MMS % Inhibition 2” value (MOG-induced EAE [3]; [7]) was 55.9%, the MMS value (MOG-induced EAE [3]; [7]) was 1.5 ± 1.8 and the “Mean Duration” value (MOG-induced EAE [3]; [7]) was 4.2 ± 6.0 days. For the same compound, the “Mean Onset” value (MOG-induced EAE [3]; [7]) was 26.9 ± 6.0 days, the Mortality (MOG-induced EAE [3]; [7]) was 0/20 and the “% Inhibition 1 (incidence)” value (MOG-induced EAE [3]; [8]) was 88.2%. The “GMS % Inhibition 3” value (MOG-induced EAE [3]; [8]) was 95.2%, the GMS value (MOG-induced EAE [3]; [8]) was 0.1 ± 0.4 and the Incidence (MOG-induced EAE [3]; [8]) was 2/20. The “MMS % Inhibition 2” value (MOG-induced EAE [3]; [8]) was 91.2%, the MMS value (MOG-induced EAE [3]; [8]) was 0.3 ± 1.0 and the “Mean Duration” value (MOG-induced EAE [3]; [8]) was 0.8 ± 2.6 days. For the same compound, the “Mean Onset” value (MOG-induced EAE [3]; [8]) was 30.3 ± 2.6 days and the Mortality (MOG-induced EAE [3]; [8]) was 0/20.
“L-glutamic acid polymer with L-alanine, L-lysine and L-tyrosine, acetate (salt) [GA]” was tested, and the “% inhibition compared to Control (GMS)” value (MOG-induced EAE [1]; [9]) was 48%, the “Group Mean Score” value (MOG-induced EAE [1]; [9]) was 1.70** and the Incidence (MOG-induced EAE [1]; [9]) was 14/16. For the same compound, the “Mean Disease Duration” value (MOG-induced EAE [1]; [9]) was 10.9*** days, the “Mean Maximal Score” value (MOG-induced EAE [1]; [9]) was 3.34** and the “Mean Onset” value (MOG-induced EAE [1]; [9]) was 19.5* days. For the same compound, the “% inhibition compared to Control (GMS)” value (MOG-induced EAE [2]; [10]) was 78.9%, the “Group Mean Score” value (MOG-induced EAE [2]; [10]) was 0.52*** and the Incidence (MOG-induced EAE [2]; [10]) was 5/15. For the same compound, the “Mean Disease Duration” value (MOG-induced EAE [2]; [10]) was 3.7*** days, the “Mean Maximal Score” value (MOG-induced EAE [2]; [10]) was 0.97*** and the “Mean Onset” value (MOG-induced EAE [2]; [10]) was 25.6*** days. The “% Inhibition 1 (incidence)” value (MOG-induced EAE [3]; GA 250 mg/kg s.c. daily 10 d) was 23.5%, the “GMS % Inhibition 3” value (MOG-induced EAE [3]; GA 250 mg/kg s.c. daily 10 d) was 38.1% and the GMS value (MOG-induced EAE [3]; GA 250 mg/kg s.c. daily 10 d) was 1.3 ± 1.1. The Incidence (MOG-induced EAE [3]; GA 250 mg/kg s.c. daily 10 d) was 13/20, the “MMS % Inhibition 2” value (MOG-induced EAE [3]; GA 250 mg/kg s.c. daily 10 d) was 26.5% and the MMS value (MOG-induced EAE [3]; GA 250 mg/kg s.c. daily 10 d) was 2.5 ± 1.9. For the same compound, the “Mean Duration” value (MOG-induced EAE [3]; GA 250 mg/kg s.c. daily 10 d) was 8.3 ± 6.7 days, the “Mean Onset” value (MOG-induced EAE [3]; GA 250 mg/kg s.c. daily 10 d) was 22.5 ± 6.7 days and the “% Inhibition 1 (incidence)” value (MOG-induced EAE [3]; [11]) was 52.9%. The GMS value (MOG-induced EAE [3]; [11]) was 0.5 ± 0.9, the Incidence (MOG-induced EAE [3]; [11]) was 8/20 and the “MMS % Inhibition 2” value (MOG-induced EAE [3]; [11]) was 70.6%. The “Mean Duration” value (MOG-induced EAE [3]; [11]) was 4.3 ± 6.3 days, the “Mean Onset” value (MOG-induced EAE [3]; [11]) was 26.6 ± 6.4 days and the “GMS % Inhibition 3” value (MOG-induced EAE [3]; [12]) was 76.2%. The MMS value (MOG-induced EAE [3]; [12]) was 1.0 ± 1.5 and the “GMS % Inhibition 3” value (MOG-induced EAE [3]; GA blocking 12.5 mg/kg once with encephalitogen, alone or + LAQ 25.0 mg/kg oral daily 30 d, listed as GA-Block) was “(76.2) %”.
